Measured values from patent US20130210907A1, “METHOD FOR PREVENTING OR TREATING ENTEROCHROMAFFIN CELL HYPERPLASIA-RELATED DISEASES BY QUERCETIN ADMINISTRATION” (HONG KONG BAPTIST UNIVERSITY, priority 2012, published 2013).

Assays:
PI-IBS rats [1] = assay: Abdominal withdrawal reflex (AWR) test: pain threshold pressure to colorectal distension; assay type: in vivo, rat; settings: for Pain threshold pressure, after treatment: 2 weeks
Description: Sprague-Dawley male rats (Laboratory Animal Services Centre, The Chinese University of Hong Kong) aged 6 weeks with body weight around 220 g are used to develop PI-IBS model. Briefly, rats are fasted for 24 h, and deeply anesthetized with chloral hydrate (350 mg.kg^−1, i.p.). After induction of colitis by 2,4,6-trinitrobenzenesulfonic acid solution (TNBS, 5 mg/0.8 ml/rat, in 50% ethanol, 8 cm from anus) administration, the rats are allowed to recover for at least 4 weeks before use. The control rats are similarly administered with 0.8 ml saline instead of TNBS. Only the rats that have completely recovered from the initial inflammation and acquired visceral hypersensitivity are used as the PI-IBS rats.
6 groups of 12 rats are tested. Normal rats (Group 1) are treated with water. PI-IBS rats are randomly divided into 5 groups and orally treated with water (Group 2), Doxantrazole (mast cell stabilizer, 30 mg/kg/d, Group 3), and Quercetin (Group 4-6) at the dose of 5, 10, and 20 mg/kg/d, respectively. After 2 weeks daily drug administration, 5 rats in each group are used to measure pain threshold pressure by abdominal withdrawal reflex (AWR) test, and the remaining […] is used for electromyography (EMG) recording.
AWR test is performed as previously described in Al-Chaer E D, Kawasaki M, Pasricha P J. A new model of chronic visceral hypersensitivity in adult rats induced by colon irritation during postnatal development. Gastroenterology. 2000 November; 119(5):1276-85. Briefly, rats are lightly anesthetized with ether; a latex balloon is inserted into the descending colon. Rats are then allowed to recover for about 1 h. The tube of the balloon is connected via a Y-connector to a sphygmomanometer and colorectal distension is applied in increments of 5 mmHg until a visible contraction of the abdominal wall is observed by an investigator blinded to the treatment. The pain threshold pressure is defined as the intensity of colorectal distension (CRD) that elicited an observable AWR, i.e. a sudden and persistent abdominal muscle contraction with abdomen lift off the platform. The pain threshold pressure of all groups is recorded and repeated five times with intervals of at least 5 minutes for recovery. EMG recording are conducted as previously described in Tammpere A, Brusberg M, Axenborg J, Hirsch I, Larsson H, Lindstrom E. Evaluation of pseudo-affective responses to noxious colorectal distension in rats by manometric recordings. Pain. 2005 August; 116(3):220-6 and Li Z, Zhang X J, Xu H X, Sung J J, Bian Z X. Intracolonical administration of protease-activated receptor-2 agonists produced visceral hyperalgesia by up-regulating serotonin in the colon of rats. Eur J. Pharmacol. 2009 Mar. 15; 606(1-3):199-204. Firstly, a surgical operation is made to implant the electrodes into the left external abdominal oblique muscles 7 days before EMG recording. After the last drug administration, a flexible latex balloon is inserted into the rat descending colon, and the rats are allowed to accommodate for 1 h. CRD is initiated, and the EMG signal is amplified and filtered by Power Lab System. Graded colorectal distension (20, 40, 60, and 80 mmHg; 20 s duration; 2 min inter-stimulus interval) is carried out for total three cycles to each rat. The changes of area under the curve (AUC) are calculated using that during 20 s distension period over the 20 s baseline.

PI-IBS rats [2] = assay: Colonic tissue 5-HT content (capillary electrophoresis, laser-induced fluorescence); assay type: in vivo, rat; settings: for 5-HT content: PI-IBS rats, colon
Description: Six groups of 5 rats are tested. The groups setting and treatments are as described in Example 1. Different from Example 1, AWR test are not applied to the rats in this experiment in order to obtain the basal data without CRD stimulus. After the last drug administration, a 6 cm proximal colon (1-2 cm from caecum) is collected and divided into 3 parts, the proximal is fixed in 4% paraformaldehyde and embedded in paraffin for EC cell staining; the middle part is collected for 5-HT content measurement and electron microscopic evaluation, and the distal part is for western blotting analysis.
5-HT content in the colon tissue is assayed based on our previously reported procedure in Qi S D, Tian S L, Xu H X, Sung J J, Bian Z X. Quantification of luminally released serotonin in rat proximal colon by capillary electrophoresis with laser-induced fluorescence detection. Anal Bioanal Chem. 2009 April; 393(8):2059-66. Briefly, the colon segment is homogenized in 15% iced trichloroacetic acid; for 2 min and stored at 4° C. for 2 h. After centrifuge at 10,000 G for 15 min, the supernatant of each sample is filtered using 0.22 μm filters and extracted with diethyl ether for five times to remove the trichloroacetic acid. The prepared samples are added to derivatization solution (150 mM sodium tetraborate, 25% acetonitrile, 2 mM CFSE) and incubated for […] in dark at room temperature. The 5-HT content is analyzed by capillary electrophoresis with laser-induced fluorescence detection and expressed as nanogram per milligram (wet weight of tissue).

normal rats = assay: Pain threshold pressure in normal rats; assay type: in vivo, rat; settings: 10 mg/kg i.g., 14 days
Description: AWR test is performed as previously described in Al-Chaer E D, Kawasaki M, Pasricha P J. A new model of chronic visceral hypersensitivity in adult rats induced by colon irritation during postnatal development. Gastroenterology. 2000 November; 119(5):1276-85. Briefly, rats are lightly anesthetized with ether; a latex balloon is inserted into the descending colon. Rats are then allowed to recover for about 1 h. The tube of the balloon is connected via a Y-connector to a sphygmomanometer and colorectal distension is applied in increments of 5 mmHg until a visible contraction of the abdominal wall is observed by an investigator blinded to the treatment. […] The pain threshold pressure of all groups is recorded and repeated five times with intervals of at least 5 minutes for recovery. […] The changes of area under the curve (AUC) are calculated using that during 20 s distension period over the 20 s baseline.
To identify whether the effects of Quercerin in PI-IBS rats are specific, pain threshold pressure, colonic EC cell number and 5-HT content are further evaluated in normal rats treated with Quercetin. […] After the final drug administration, pain threshold pressure, colonic EC cell density and 5-HT content are evaluated and the methods used here are as same as that shown in above experiments.

QGP-1 cells = assay: Cytotoxicity by lactate dehydrogenase (LDH) release; assay type: cell-based, human; settings: QGP-1, 25-100 μM, 24 h
Description: The cytotoxicity of Quercetin is determined by lactate dehydrogenase (LDH) assay in QGP-1 cells. Cells are seeded at a density of 5,000 cells/well into 96-well plates and incubated with Quercetin (0-100 μM, 0.01% DMSO) for 24 h. Release of cytoplasmic enzyme lactate dehydrogenase is measured after incubation by using colorimetric assay kit (Roche Molecular Biochemicals, Germany) according to the manufacturer's instructions.

O=c1c(O)c(-c2ccc(O)c(O)c2)oc2cc(O)cc(O)c12 [Quercetin, 2-(3,4-dihydroxyphenyl)-3,5,7-trihydroxy-4H-chromen-4-one]
Pain threshold pressure, after treatment (PI-IBS rats [1]; 5 mg/kg i.g. daily): 32 ± 1.9 mmHg
Pain threshold pressure, before treatment (PI-IBS rats [1]; 5 mg/kg i.g. group): 25 ± 1.9 mmHg
Pain threshold pressure, after treatment (PI-IBS rats [1]; 10 mg/kg i.g. daily): 33 ± 1.8 mmHg
Pain threshold pressure, before treatment (PI-IBS rats [1]; 10 mg/kg i.g. group): 25 ± 1.1 mmHg
Pain threshold pressure, after treatment (PI-IBS rats [1]; 20 mg/kg i.g. daily): 35 ± 1.3 mmHg
Pain threshold pressure, before treatment (PI-IBS rats [1]; 20 mg/kg i.g. group): 24 ± 1.1 mmHg
5-HT content (PI-IBS rats [2]; 5 mg/kg i.g.): 5.15 ± 0.58 ng/mg
5-HT content (PI-IBS rats [2]; 10 mg/kg i.g.): 4.63 ± 0.92 ng/mg
5-HT content (PI-IBS rats [2]; 20 mg/kg i.g.): 5.50 ± 0.65^ ng/mg
Decrease of 5-HT content compared with the PI-IBS group (PI-IBS rats [2]; low dose (5 mg/kg)): 28%
Decrease of 5-HT content compared with the PI-IBS group (PI-IBS rats [2]; median dose (10 mg/kg)): 35%
Pain threshold pressure (normal rats): 37.9 ± 1.7 mmHg
LDH release (QGP-1 cells): significant and dose-dependent increase
